Assay results as given in patent publication US20240383954A1, “PEPTIDE INHIBITORS OF INTERLEUKIN-23 RECEPTOR AND THEIR USE TO TREAT INFLAMMATORY DISEASES” (Janssen Biotech, Inc., priority 2020, published 2024).
Positions of bridges follow the written chain, without caps; N, C: chain ends. Non-standard residues stand in square brackets, D forms with d. Residues, ends and D or L forms follow the SMILES beside them. Trp(7-Me) = Cc1cccc2c(C[C@H](N)C(=O)O)c[nH]c12; 2Nal = N[C@@H](Cc1ccc2ccccc2c1)C(=O)O; AEF = NCCOc1ccc(C[C@H](N)C(=O)O)cc1; αMeF = C[C@](N)(Cc1ccccc1)C(=O)O; Pen = CC(C)(S)[C@H](N)C(=O)O; αMeK = C[C@](N)(CCCCN)C(=O)O; Ac5c = NC1(C(=O)O)CCCC1; Thp = NC1(C(=O)O)CCOCC1

Target: IL-23R (Homo sapiens, UniProt Q5VWK5)
Experiment: cell-based
Conditions: PBMC pSTAT3 IC50 (nM), PBMCs from healthy donors, IL-23 5 ng/mL, 30 minutes, phosphorylated STAT3
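Further: cryopreserved PBMCs stimulated at 37 °C in 5% CO2, then lysed, with phosphorylated STAT3 quantified in lysates using a phospho-STAT panel kit.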

IL-23R, sequence (Q5VWK5 24-629): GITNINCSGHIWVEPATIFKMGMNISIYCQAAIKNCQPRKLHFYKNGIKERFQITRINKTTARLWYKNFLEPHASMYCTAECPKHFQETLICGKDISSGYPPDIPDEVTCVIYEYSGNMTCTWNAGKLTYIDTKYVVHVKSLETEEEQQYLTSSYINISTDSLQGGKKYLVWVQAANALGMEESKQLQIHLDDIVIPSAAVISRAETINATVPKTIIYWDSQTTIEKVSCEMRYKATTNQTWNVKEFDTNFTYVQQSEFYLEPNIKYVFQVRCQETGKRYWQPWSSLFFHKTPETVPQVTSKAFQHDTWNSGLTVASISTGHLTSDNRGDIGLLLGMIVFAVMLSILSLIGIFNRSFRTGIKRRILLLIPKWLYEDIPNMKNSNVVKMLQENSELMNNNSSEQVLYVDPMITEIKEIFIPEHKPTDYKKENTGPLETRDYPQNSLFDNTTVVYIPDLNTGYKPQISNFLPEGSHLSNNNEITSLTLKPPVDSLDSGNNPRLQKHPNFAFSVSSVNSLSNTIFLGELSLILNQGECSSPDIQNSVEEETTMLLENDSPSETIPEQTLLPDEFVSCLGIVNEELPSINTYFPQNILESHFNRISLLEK

| SMILES | IC50 |
| --- | --- |
| CC(=O)NCCCC[C@@H]1NC(=O)[C@H](Cc2c[nH]c3ccccc23)NC(=O)[C@H]([C@@H](C)O)NC(=O)[C@H](CCC(N)=O)NC(=O)[C@@H](NC(C)=O)C(C)(C)SSC(C)(C)[C@@H](C(=O)N[C@@H](Cc2ccc(OCCN)cc2)C(=O)N[C@@H](Cc2ccc3ccccc3c2)C(=O)N[C@@](C)(CCCCN)C(=O)N[C@@H](CCCCNC(C)=O)C(=O)N[C@@H](CC(N)=O)C(=O)N[C@@](C)(Cc2ccccc2)C(N)=O)NC1=O [Compound 82, Ac-[Pen]-Q-T-W-[Lys(Ac)]-[Pen]-Phe[4-(2-aminoethoxy)]-[2-Nal]-[a-MeLys]-[Lys(Ac)]-N-[a-MePhe]-NH2] (Ac-[Pen]QTWK(Ac)[Pen][AEF][2Nal][αMeK]K(Ac)N[αMeF]-NH2; disulfide 1-6) | 54 nM |
| CC(=O)NCCCC[C@@H]1NC(=O)[C@H](Cc2c[nH]c3ccccc23)NC(=O)[C@H]([C@@H](C)O)NC(=O)[C@H](CCC(N)=O)NC(=O)[C@@H](NC(C)=O)C(C)(C)SSC(C)(C)[C@@H](C(=O)N[C@@H](Cc2ccc(OCCN)cc2)C(=O)N[C@@H](Cc2ccc3ccccc3c2)C(=O)N[C@@](C)(CCCCN)C(=O)N[C@@H](CCCCNC(C)=O)C(=O)N[C@@H](CC(N)=O)C(=O)NC2(C(N)=O)CCOCC2)NC1=O [Compound 84, Ac-[Pen]-Q-T-W-[Lys(Ac)]-[Pen]-Phe[4-(2-aminoethoxy)]-[2-Nal]-[a-MeLys]-[Lys(Ac)]-N-[THP]-NH2] (Ac-[Pen]QTWK(Ac)[Pen][AEF][2Nal][αMeK]K(Ac)N[Thp]-NH2; disulfide 1-6) | 54 nM |
| CC(=O)NCCCC[C@H](NC(=O)[C@](C)(CCCCN)NC(=O)[C@H](Cc1ccc2ccccc2c1)NC(=O)[C@H](Cc1ccc(OCCN)cc1)NC(=O)[C@H]1NC(=O)[C@H](CCC(N)=O)NC(=O)[C@H](Cc2c[nH]c3c(C)cccc23)NC(=O)[C@H]([C@@H](C)O)NC(=O)[C@H](CC(N)=O)NC(=O)[C@@H](NC(C)=O)C(C)(C)SSC1(C)C)C(=O)N[C@@H](CC(N)=O)C(=O)NC1(C(N)=O)CCOCC1 [Compound 87, Ac-[Pen]-N-T-[W(7-Me)]-Q-[Pen]-Phe[4-(2-aminoethoxy)]-[2-Nal]-[a-MeLys]-[Lys(Ac)]-N-[THP]-NH2] | 3.6 nM |
| CC(=O)NCCCC[C@@H]1NC(=O)[C@H](Cc2c[nH]c3ccccc23)NC(=O)[C@H]([C@@H](C)O)NC(=O)[C@H](CC(N)=O)NC(=O)[C@@H](NC(=O)[C@@H](CCCNC(=N)N)NC(C)=O)C(C)(C)SSC(C)(C)[C@@H](C(=O)N[C@@H](Cc2ccc(OCCN)cc2)C(=O)N[C@@H](Cc2ccc3ccccc3c2)C(=O)NC2(C(=O)N[C@@H](CCC(=O)O)C(=O)N[C@@H](CC(N)=O)C(=O)NC3(C(N)=O)CCOCC3)CCCC2)NC1=O [Compound 88, Ac-[(D)Arg]-[Pen]-N-T-W-[Lys(Ac)]-[Pen]-Phe[4-(2-aminoethoxy)]-[2-Nal]-[Acvc]-E-N-[THP]-NH2] (Ac-[dR][Pen]NTWK(Ac)[Pen][AEF][2Nal][Ac5c]EN[Thp]-NH2; disulfide 2-7) | 3.7 nM |
| CC(=O)NCCCC[C@H](NC(=O)[C@](C)(CCCCN)NC(=O)[C@H](Cc1ccc2ccccc2c1)NC(=O)[C@H](Cc1ccc(OCCN)cc1)NC(=O)[C@H]1NC(=O)[C@H](CCC(N)=O)NC(=O)[C@H](Cc2c[nH]c3c(C)cccc23)NC(=O)[C@H]([C@@H](C)O)NC(=O)[C@H](CC(N)=O)NC(=O)[C@@H](NC(C)=O)C(C)(C)SSC1(C)C)C(=O)N[C@@H](CC(N)=O)C(=O)N[C@@](C)(Cc1ccccc1)C(N)=O [Compound 89, Ac-[Pen]-N-T-[W(7-Me)]-Q-[Pen]-Phe[4-(2-aminoethoxy)]-[2-Nal]-[a-MeLys]-[Lys(Ac)]-N-[a-MePhe]-NH2] | 12 nM |
| CC(=O)N[C@H](CCCNC(=N)N)C(=O)N[C@@H]1C(=O)N[C@@H](CC(N)=O)C(=O)N[C@@H]([C@@H](C)O)C(=O)N[C@@H](Cc2c[nH]c3c(C)cccc23)C(=O)N[C@@H](CCC(N)=O)C(=O)N[C@H](C(=O)N[C@@H](Cc2ccc(OCCN)cc2)C(=O)N[C@@H](Cc2ccc3ccccc3c2)C(=O)NC2(C(=O)N[C@@H](CCC(=O)O)C(=O)N[C@@H](CC(N)=O)C(=O)NC3(C(N)=O)CCOCC3)CCOCC2)C(C)(C)SSC1(C)C [Compound 90, Ac-[(D)Arg]-[Pen]-N-T-[W(7-Me)]-Q-[Pen]-Phe[4-(2-aminoethoxy)]-[2-Nal]-[THP]-E-N-[THP]-NH2] (Ac-[dR][Pen]NT[Trp(7-Me)]Q[Pen][AEF][2Nal][Thp]EN[Thp]-NH2; disulfide 2-7) | 3.7 nM |
| CC(=O)N[C@H](CCCNC(=N)N)C(=O)N[C@@H]1C(=O)N[C@@H](CC(N)=O)C(=O)N[C@@H]([C@@H](C)O)C(=O)N[C@@H](Cc2c[nH]c3c(C)cccc23)C(=O)N[C@@H](CCC(N)=O)C(=O)N[C@H](C(=O)N[C@@H](Cc2ccc(OCCN)cc2)C(=O)N[C@@H](Cc2ccc3ccccc3c2)C(=O)NC2(C(=O)N[C@@H](CCC(=O)O)C(=O)N[C@@H](CC(N)=O)C(=O)N[C@@](C)(Cc3ccccc3)C(N)=O)CCOCC2)C(C)(C)SSC1(C)C [Compound 91, Ac-[(D)Arg]-[Pen]-N-T-[W(7-Me)]-Q-[Pen]-Phe[4-(2-aminoethoxy)]-[2-Nal]-[THP]-E-N-[a-MePhe]-NH2] (Ac-[dR][Pen]NT[Trp(7-Me)]Q[Pen][AEF][2Nal][Thp]EN[αMeF]-NH2; disulfide 2-7) | 4.1 nM |
| CC(=O)NCCCC[C@@H]1NC(=O)[C@H](Cc2c[nH]c3c(C)cccc23)NC(=O)[C@H]([C@@H](C)O)NC(=O)[C@H](CC(N)=O)NC(=O)[C@@H](NC(=O)[C@@H](CCCNC(=N)N)NC(C)=O)C(C)(C)SSC(C)(C)[C@@H](C(=O)N[C@@H](Cc2ccc(OCCN)cc2)C(=O)N[C@@H](Cc2ccc3ccccc3c2)C(=O)NC2(C(=O)N[C@@H](CCC(=O)O)C(=O)N[C@@H](CC(N)=O)C(=O)NC3(C(N)=O)CCOCC3)CCOCC2)NC1=O [Compound 92, Ac-[(D)Arg]-[Pen]-N-T-[W(7-Me)]-[Lys(Ac)]-[Pen]-Phe[4-(2-aminoethoxy)]-[2-Nal]-[THP]-E-N-[THP]-NH2] (Ac-[dR][Pen]NT[Trp(7-Me)]K(Ac)[Pen][AEF][2Nal][Thp]EN[Thp]-NH2; disulfide 2-7) | 3.3 nM |
| CC(=O)N[C@H](CCCNC(=N)N)C(=O)N[C@@H]1C(=O)N[C@@H](CC(N)=O)C(=O)N[C@@H]([C@@H](C)O)C(=O)N[C@@H](Cc2c[nH]c3c(C)cccc23)C(=O)N[C@@H](CCC(N)=O)C(=O)N[C@H](C(=O)N[C@@H](Cc2ccc(OCCN)cc2)C(=O)N[C@@H](Cc2ccc3ccccc3c2)C(=O)NC2(C(=O)N[C@@H](CCC(=O)O)C(=O)N[C@@H](CC(N)=O)C(=O)N[C@@](C)(Cc3ccccc3)C(N)=O)CCCC2)C(C)(C)SSC1(C)C [Compound 93, Ac-[(D)Arg]-[Pen]-N-T-[W(7-Me)]-Q-[Pen]-Phe[4-(2-aminoethoxy)]-[2-Nal]-[Acvc]-E-N-[a-MePhe]-NH2] (Ac-[dR][Pen]NT[Trp(7-Me)]Q[Pen][AEF][2Nal][Ac5c]EN[αMeF]-NH2; disulfide 2-7) | 4.6 nM |
| CC(=O)NCCCC[C@@H]1NC(=O)[C@H](Cc2c[nH]c3c(C)cccc23)NC(=O)[C@H]([C@@H](C)O)NC(=O)[C@H](CC(N)=O)NC(=O)[C@@H](NC(=O)[C@@H](CCCNC(=N)N)NC(C)=O)C(C)(C)SSC(C)(C)[C@@H](C(=O)N[C@@H](Cc2ccc(OCCN)cc2)C(=O)N[C@@H](Cc2ccc3ccccc3c2)C(=O)NC2(C(=O)N[C@@H](CCC(=O)O)C(=O)N[C@@H](CC(N)=O)C(=O)N[C@@](C)(Cc3ccccc3)C(N)=O)CCCC2)NC1=O [Compound 94, Ac-[(D)Arg]-[Pen]-N-T-[W(7-Me)]-[Lys(Ac)]-[Pen]-Phe[4-(2-aminoethoxy)]-[2-Nal]-[Acvc]-E-N-[a-MePhe]-NH2] (Ac-[dR][Pen]NT[Trp(7-Me)]K(Ac)[Pen][AEF][2Nal][Ac5c]EN[αMeF]-NH2; disulfide 2-7) | 12 nM |
| CC(=O)NCCCC[C@@H]1NC(=O)[C@H](Cc2c[nH]c3ccccc23)NC(=O)[C@H]([C@@H](C)O)NC(=O)[C@H](CC(N)=O)NC(=O)[C@@H](NC(C)=O)C(C)(C)SSC(C)(C)[C@@H](C(=O)N[C@@H](Cc2ccc(OCCN)cc2)C(=O)N[C@@H](Cc2ccc3ccccc3c2)C(=O)N[C@@](C)(CCCCN)C(=O)N[C@@H](CCCCNC(C)=O)C(=O)N[C@@H](CC(N)=O)C(=O)NC2(C(N)=O)CCOCC2)NC1=O [Compound 95, Ac-[Pen]-N-T-W-[Lys(Ac)]-[Pen]-Phe[4-(2-aminoethoxy)]-[2-Nal]-[a-MeLys]-[Lys(Ac)]-N-[THP]-NH2] | 22 nM |
| CC(=O)N[C@H](CCCNC(=N)N)C(=O)N[C@@H]1C(=O)N[C@@H](CCC(N)=O)C(=O)N[C@@H]([C@@H](C)O)C(=O)N[C@@H](Cc2c[nH]c3ccccc23)C(=O)N[C@@H](CCC(N)=O)C(=O)N[C@H](C(=O)N[C@@H](Cc2ccc(OCCN)cc2)C(=O)N[C@@H](Cc2ccc3ccccc3c2)C(=O)NC2(C(=O)N[C@@H](CCC(=O)O)C(=O)N[C@@H](CC(N)=O)C(=O)N[C@@](C)(Cc3ccccc3)C(N)=O)CCOCC2)C(C)(C)SSC1(C)C [Compound 97, Ac-[(D)Arg]-[Pen]-Q-T-W-Q-[Pen]-Phe[4-(2-aminoethoxy)]-[2-Nal]-[THP]-E-N-[a-MePhe]-NH2] (Ac-[dR][Pen]QTWQ[Pen][AEF][2Nal][Thp]EN[αMeF]-NH2; disulfide 2-7) | 31 nM |
| CC(=O)NCCCC[C@@H]1NC(=O)[C@H](Cc2c[nH]c3ccccc23)NC(=O)[C@H]([C@@H](C)O)NC(=O)[C@H](CC(N)=O)NC(=O)[C@@H](NC(C)=O)C(C)(C)SSC(C)(C)[C@@H](C(=O)N[C@@H](Cc2ccc(OCCN)cc2)C(=O)N[C@@H](Cc2ccc3ccccc3c2)C(=O)N[C@@](C)(CCCCN)C(=O)N[C@@H](CCCCNC(C)=O)C(=O)N[C@@H](CC(N)=O)C(=O)N[C@@](C)(Cc2ccccc2)C(N)=O)NC1=O [Compound 98, Ac-[Pen]-N-T-W-[Lys(Ac)]-[Pen]-Phe[4-(2-aminoethoxy)]-[2-Nal]-[a-MeLys]-[Lys(Ac)]-N-[a-MePhe]-NH2] | 15 nM |
| CC(=O)N[C@H](CCCNC(=N)N)C(=O)N[C@@H]1C(=O)N[C@@H](CC(N)=O)C(=O)N[C@@H]([C@@H](C)O)C(=O)N[C@@H](Cc2c[nH]c3c(C)cccc23)C(=O)N[C@@H](CCC(N)=O)C(=O)N[C@H](C(=O)N[C@@H](Cc2ccc(OCCN)cc2)C(=O)N[C@@H](Cc2ccc3ccccc3c2)C(=O)NC2(C(=O)N[C@@H](CCC(=O)O)C(=O)N[C@@H](CC(N)=O)C(=O)NC3(C(N)=O)CCOCC3)CCCC2)C(C)(C)SSC1(C)C [Compound 99, Ac-[(D)Arg]-[Pen]-N-T-[W(7-Me)]-Q-[Pen]-Phe[4-(2-aminoethoxy)]-[2-Nal]-[Acvc]-E-N-[THP]-NH2] (Ac-[dR][Pen]NT[Trp(7-Me)]Q[Pen][AEF][2Nal][Ac5c]EN[Thp]-NH2; disulfide 2-7) | 4.2 nM |
